Structures can show the parent of a compound that is named as a salt.
System: subjects aged 18-65 years with a HOMA(-IR) score between 2.5 and 3.5 (insulin resistance)
Test: Reduction in HOMA-IR after 28 days of (non-)butyrate-producing bacteria with or without (non-)insulin-sensitizing agents (Experimental Example 1)
Type: in vivo, human
Set-up: key: Non-measurable: the first rank describes the lowest effect; Very low: very low; Low: low; Low/medium: low/medium; Medium: medium; High: high; Very high: the last rank describes the highest effect
Conditions: supplement alone, bacterium placebo
Text: The term ‘insulin resistance’ is well known by the skilled person. Within this disclosure, the term encompasses all conditions diagnosed as ‘insulin resistance’ by an (authorized) medical practitioner. The term ‘insulin resistance’ as used herein preferably refers to peripheral insulin resistance and/or hepatic insulin resistance. Insulin resistance may be diagnosed, for example, by the gold standard that is the “hyperinsulinemic euglycemic clamp” (DeFronzo R A, Tobin J D, Andres R, Am J Physiol. 1979 September; 237(3): E214-23). This method measures the amount of glucose necessary to compensate for an increased insulin level without causing hypoglycemia. The procedure may take two hours and typically involves the following steps: Through a peripheral vein, insulin is infused at 10-120 mU per m^2 per minute. In order to compensate for the insulin infusion, glucose 20% is infused to maintain blood sugar levels between 5 and 5.5 mmol/L. The rate of glucose infusion is determined by checking the blood sugar levels every five to ten minutes (Muniyappa R, Lee S, Chen H, Quon M J, January 2008, American Journal of Physiology. Endocrinology and Metabolism. 294 (1): E15-26). […] The homeostatic model assessment for insulin resistance (HOMA or HOMA-IR) is an alternative method used to determine and quantify insulin resistance in a fasting steady-state condition, and correlates reasonably with the golden standard (See e.g., Matthews D R, Hosker J P, Rudenski A S, Naylor B A, Treacher D F, Turner R C (1985). Diabetologia. 28 (7): 412-9. Doi:10.1007/BF00280883. PMID 3899825; and/or A. S. Rudenski; D. R. Matthews; J. C. Levy; R. C. Turner (1991) Metabolism. 40 (9): 908-917). […] The HOMA(-IR) value can be calculated by the following equation: […]
Mixed male/female subjects aged 18-65 years with a HOMA(-IR) score between 2.5 and 3.5, thus indicating insulin resistance, are included in the study. The HOMA-IR can be determined as described herein elsewhere. The HOMA(-IR) is measured at baseline and after 28 days. […]

Molecule | reduction in HOMA-IR value
chromium(III) picolinate | Very low
OC[C@@H](O)[C@@H](O)[C@H](O)[C@@H](O)CO [Sorbitol, D-glucitol] | Low/medium
CN(C)C(=N)NC(=N)N [Metformin, 1,1-dimethylbiguanide hydrochloride, reference compound] | Low/medium

Source: patent publication US20240269197A1, “INSULIN-SENSITIZING AGENT AND BUTYRATE-PRODUCING BACTERIUM” (priority 2021, published 2024)
